From patent US20240051952A1, “HMOX1 INDUCERS” (Mitobridge Inc., priority 2019, published 2024)

Tested on: Human Heme Oxygenase-1 (HMOX-1)
Assay: ELISA assay to measure human heme oxygenase-1 (HMOX-1) in HepG2 lysate
Format: cell-based
Conditions: for Maximum Fold induction: fold change of human HMOX1 protein levels relative to DMSO control, HepG2
Method: Example 143. ELISA Assay to Measure Human Heme Oxygenase-1 (HMOX-1) in HepG2 lysate
Reagents and Technical Notes:
ELISA capture antibody, standard HO-1, detection antibody and streptavidin HRP were supplied in the DuoSet IC Human total HO-1 ELISA from R&D systems (DYC3776-2). The substrate cocktail was KPL LumiGLO reserve Chemiluminescent Substrate (54-71-00). PBS was Corning Cellgro Cell Culture (21-040-CV). 10×PBS+0.05% tween20 (PBST) was from KPL.
All incubations of the plate were at room temperature (20° C.) in a closed drawer.
The ELISA plate was processed manually. All loadings were with a multichannel pipet. Plates were emptied by shaking into the sink and tapping onto paper towels to remove any remaining reagent. Plate washing was accomplished by loading all wells with PBS+0.05% tween20 (PBST) using a squirt bottle, shaking the PBST out and tapping the plate onto paper towels.
Preparation of the ELISA Plate: • 1. anti-HO-1 capture antibody was 1440 μg/ml after reconstitution in PBS. This antibody was diluted to 8 μg/ml in PBS and 50 μl per well was added to a 384 well greiner “lumitrac 200” plate. Incubated overnight. • 2. The plate was emptied and 100 μl PBS+1% BSA added to all wells. Incubated 90 minutes at room temperature.
Preparation of HepG2 Lysate: • 1. Cells were cultured in a 96-well tissue culture plate washed with PBS and then the plate frozen at −70° C. overnight. Plates were allowed to warm to ice temperature in an ice bucket. 20 μl of PBS, 0.5% Triton X100, 1 mM EDTA with 1×HALT™ protease inhibitors was added to each well and the plates incubated on ice for 1 hour. • 2. The lysates were frozen at −20° C. overnight.
Measurement of HMOX1 (“HO-1”) • 1. In a polypropylene 384 well plate, human HO-1(after reconstitution in PBS+0.5% Triton+1 mM EDTA) was serially diluted from 20 ng/ml 2-fold in PBS+0.5% triton-X100, 1 mM EDTA to make a 12-point standard curve including a zero point. • 2. In a polypropylene 96 well plate, HepG2 lysate was diluted 1 to 20 in Diluent #4 from DUOSET kit in which the assay standard is also diluted. • 3. The PBS+1% BSA was emptied from the ELISA plate and 30 μl of all samples and standards were added (duplicates recommended). The plate was incubated 90 minutes. • 4. Emptied plate and washed 4 times with PBST. • 5. Diluted HO-1 detection antibody to 200 ng/ml in PBS+1% BSA and added 30 μl to all wells. Incubated 90 minutes. • 6. Emptied plate and washed 4 times with PBST. • 7. Added 30 μl streptavidin HRP at 1/200 in PBS+1% BSA (stock streptavidin concentration not specified) to all wells. Incubated 30 minutes. • 8. Emptied plate and washed 4 times with PBST. • 9. Diluted Lumiglo reserve reagent two parts buffer to one part lumiglo substrate. Added 30 μl to all wells. Incubated 5 minutes. • 10. Measured chemiluminescence on spectramax M5 using 150 ms integration.
Table 1 below lists EC50 and fold changes of human HMOX1 protein levels relative to DMSO control upon treatment with representative compounds.

`CC(C)C(N)C(=O)OCCOCCNC(=O)c1ccc2c(c1)nc(Nc1nc3ccccc3o1)n2C.Cl` (racemic) [Example 30, 2-(2-(2-(benzo[d]oxazol-2-ylamino)-1-methyl-1H-benzo[d]imidazole-5-carboxamido)ethoxy)ethyl DL-valinate hydrochloride] was tested, and the “Maximum Fold induction” value was 25-53.
`Cn1c(Nc2nc3ccccc3o2)nc2cc(C(=O)O)ccc21` [Example 1h, 2-(benzo[d]oxazol-2-ylamino)-1-methyl-1H-benzo[d]imidazole-5-carboxylic acid] was tested, and the “Maximum Fold induction” value was 7-38.
In the case of `COCCNC(=O)c1ccc2c(c1)nc(Nc1nc3ccccc3o1)n2C` [Example 1i, 2-(benzo[d]oxazol-2-ylamino)-N-(2-methoxyethyl)-1-methyl-1H-benzo[d]imidazole-5-carboxamide], the “Maximum Fold induction” value is reported as 6-15.
In the case of `O=C(O)c1ccc2c(c1)nc(Nc1nc3ccc(OC(F)(F)F)cc3s1)n2C1CCOCC1` [Example 2d, 1-(tetrahydro-2H-pyran-4-yl)-2-((6-(trifluoromethoxy)benzo[d]thiazol-2-yl)amino)-1H-benzo[d]imidazole-5-carboxylic acid], the “Maximum Fold induction” value is reported as 10 (n = 2).
For `COCCNC(=O)c1ccc2c(c1)nc(Nc1nc3ccc(OC(F)(F)F)cc3s1)n2C1CCOCC1` [Example 2e, N-(2-methoxyethyl)-1-(tetrahydro-2H-pyran-4-yl)-2-((6-(trifluoromethoxy)benzo[d]thiazol-2-yl)amino)-1H-benzo[d]imidazole-5-carboxamide], the “Maximum Fold induction” value was 20-33.
In the case of `CN1CCC(n2c(Nc3nc4ccc(OC(F)(F)F)cc4s3)nc3cc(C(=O)O)ccc32)CC1` [Example 3d, 1-(1-methylpiperidin-4-yl)-2-((6-(trifluoromethoxy)benzo[d]thiazol-2-yl)amino)-1H-benzo[d]imidazole-5-carboxylic acid], the “Maximum Fold induction” value is reported as 13.
`COCCNC(=O)c1ccc2c(c1)nc(Nc1nc3ccc(OC(F)(F)F)cc3s1)n2C1CCN(C)CC1` [Example 3e, N-(2-methoxyethyl)-1-(1-methylpiperidin-4-yl)-2-((6-(trifluoromethoxy)benzo[d]thiazol-2-yl)amino)-1H-benzo[d]imidazole-5-carboxamide] was tested, and the “Maximum Fold induction” value was 6-46.
With `CN1CCC(n2c(Nc3nc4ccc(OC(F)(F)F)cc4s3)nc3cc(C(=O)O)ccc32)C1` (stereo not shown) [Example 4d, 1-(1-methylpyrrolidin-3-yl)-2-((6-(trifluoromethoxy)benzo[d]thiazol-2-yl)amino)-1H-benzo[d]imidazole-5-carboxylic acid] the “Maximum Fold induction” value was 29-33.
In the case of `COCCNC(=O)c1ccc2c(c1)nc(Nc1nc3ccc(OC(F)(F)F)cc3s1)n2C1CCN(C)C1` (stereo not shown) [Example 4e, N-(2-methoxyethyl)-1-(1-methylpyrrolidin-3-yl)-2-((6-(trifluoromethoxy)benzo[d]thiazol-2-yl)amino)-1H-benzo[d]imidazole-5-carboxamide], the “Maximum Fold induction” value is reported as 19.
For `COCCNC(=O)c1ccc2c(c1)nc(Nc1nc3c(s1)CCCC3)n2C` [Example 5, N-(2-methoxyethyl)-1-methyl-2-((4,5,6,7-tetrahydrobenzo[d]thiazol-2-yl)amino)-1H-benzo[d]imidazole-5-carboxamide], the “Maximum Fold induction” value was 7-12 and the EC50 (human HMOX1 protein in HepG2 lysate, ELISA, * = average of 2 or more EC50 determinations, NA = Not Active) was 1300 nM.
With `CC(=O)N1CCc2nc(Nc3nc4cc(C(=O)NCCOCCO)ccc4n3C)sc2C1` [Example 10, 2-((5-acetyl-4,5,6,7-tetrahydrothiazolo[5,4-c]pyridin-2-yl)amino)-N-(2-(2-hydroxyethoxy)ethyl)-1-methyl-1H-benzo[d]imidazole-5-carboxamide] the “Maximum Fold induction” value was 2.
For `COCCNC(=O)c1ccc2c(c1)nc(Nc1nc3c(s1)COCC3)n2C` [Example 11, 2-((6,7-dihydro-4H-pyrano[4,3-d]thiazol-2-yl)amino)-N-(2-methoxyethyl)-1-methyl-1H-benzo[d]imidazole-5-carboxamide], the “Maximum Fold induction” value was 5.
For `COCCNC(=O)c1ccc2c(c1)nc(Nc1nc3ccccc3[nH]1)n2C` [Example 12, 2-((1H-benzo[d]imidazol-2-yl)amino)-N-(2-methoxyethyl)-1-methyl-1H-benzo[d]imidazole-5-carboxamide], the “Maximum Fold induction” value was 5.5.
For `COCCNC(=O)c1ccc2c(c1)nc(Nc1nc3cc(OC(F)(F)F)ccc3[nH]1)n2C` [Example 14, N-(2-methoxyethyl)-1-methyl-2-((5-(trifluoromethoxy)-1H-benzo[d]imidazol-2-yl)amino)-1H-benzo[d]imidazole-5-carboxamide], the “Maximum Fold induction” value was 6-25.
With `Cn1c(Nc2nc3cc(C(=O)O)ccc3n2C)nc2cc(OC(F)(F)F)ccc21` [Example 15, 1-methyl-2-((1-methyl-5-(trifluoromethoxy)-1H-benzo[d]imidazol-2-yl)amino)-1H-benzo[d]imidazole-5-carboxylic acid] the “Maximum Fold induction” value was 11-13.
With `Cn1c(Nc2nc3ccccc3o2)nc2cc(C(=O)NCCO)ccc21` [Example 16, 2-(benzo[d]oxazol-2-ylamino)-N-(2-hydroxyethyl)-1-methyl-1H-benzo[d]imidazole-5-carboxamide] the “Maximum Fold induction” value was 8-27.
For `Cl.Cn1c(Nc2nc3ccccc3o2)nc2cc(C(=O)NCCN)ccc21` [Example 18, N-(2-aminoethyl)-2-(benzo[d]oxazol-2-ylamino)-1-methyl-1H-benzo[d]imidazole-5-carboxamide hydrochloride], the “Maximum Fold induction” value was 41-52.
In the case of `CN(C)CC(=O)NCCNC(=O)c1ccc2c(c1)nc(Nc1nc3ccccc3o1)n2C` [Example 19, 2-(benzo[d]oxazol-2-ylamino)-N-(2-(2-(dimethylamino)acetamido)ethyl)-1-methyl-1H-benzo[d]imidazole-5-carboxamide], the “Maximum Fold induction” value is reported as 14-26.
`Cn1c(Nc2nc3ccccc3o2)nc2cc(C(=O)NCCN3CCOCC3)ccc21` [Example 20, 2-(benzo[d]oxazol-2-ylamino)-1-methyl-N-(2-morpholinoethyl)-1H-benzo[d]imidazole-5-carboxamide] was tested, and the “Maximum Fold induction” value was 8.
With `CN(C)CCNC(=O)c1ccc2c(c1)nc(Nc1nc3ccccc3o1)n2C` [Example 21, 2-(benzo[d]oxazol-2-ylamino)-N-(2-(dimethylamino)ethyl)-1-methyl-1H-benzo[d]imidazole-5-carboxamide] the “Maximum Fold induction” value was 14.
With `CC(O)CNC(=O)c1ccc2c(c1)nc(Nc1nc3ccccc3o1)n2C` (stereo not shown) [Example 23, 2-(benzo[d]oxazol-2-ylamino)-N-(2-hydroxypropyl)-1-methyl-1H-benzo[d]imidazole-5-carboxamide] the “Maximum Fold induction” value was 25-61.
With `Cn1c(Nc2nc3ccccc3o2)nc2cc(C(=O)NCC(O)CO)ccc21` (stereo not shown) [Example 24, 2-(benzo[d]oxazol-2-ylamino)-N-(2,3-dihydroxypropyl)-1-methyl-1H-benzo[d]imidazole-5-carboxamide] the “Maximum Fold induction” value was 49.
With `CC(O)COCCNC(=O)c1ccc2c(c1)nc(Nc1nc3ccccc3o1)n2C` (stereo not shown) [Example 25] the “Maximum Fold induction” value was 26.
`Cn1c(Nc2nc3ccccc3o2)nc2cc(C(=O)NCC3(O)COC3)ccc21` [Example 26, 2-(benzo[d]oxazol-2-ylamino)-N-((3-hydroxyoxetan-3-yl)methyl)-1-methyl-1H-benzo[d]imidazole-5-carboxamide] was tested, and the “Maximum Fold induction” value was 26.
For `Cn1c(Nc2nc3ccccc3o2)nc2cc(C(=O)NCCOCC(C)(C)O)ccc21` [Example 27, 2-(benzo[d]oxazol-2-ylamino)-N-(2-(2-hydroxy-2-methylpropoxy)ethyl)-1-methyl-1H-benzo[d]imidazole-5-carboxamide], the “Maximum Fold induction” value was 17.
`Cn1c(Nc2nc3ccccc3o2)nc2cc(C(=O)NCCN3CCCC3)ccc21` [Example 28, 2-(benzo[d]oxazol-2-ylamino)-1-methyl-N-(2-(pyrrolidin-1-yl)ethyl)-1H-benzo[d]imidazole-5-carboxamide] was tested, and the “Maximum Fold induction” value was 41.
In the case of `Cn1c(Nc2nc3ccccc3o2)nc2cc(C(=O)NCCOCC(=O)O)ccc21` [Example 29, 2-(2-(2-(benzo[d]oxazol-2-ylamino)-1-methyl-1H-benzo[d]imidazole-5-carboxamido)ethoxy)acetic acid], the “Maximum Fold induction” value is reported as 12.
